In article PMC7281973, “Biological and Computational Studies for Dual Cholinesterases Inhibitory Effect of Zerumbone” (Nutrients, 2020):
Where two headings read alike, the source gives them in different places.

Tests used:
[1] = molecular target: T1, BChE (Equus caballus, UniProt P81908); conditions: ref Xavier et al. 2015; cited from earlier work
[2] = molecular target: T2, Elastase (Sus scrofa, UniProt P00772); assay: Enzyme selectivity assay, elastase; type: biochemical; conditions: mean ± SD, read-out: Inhibitory activity (%) against Elastase
T2 construct: purchased Sigma-Aldrich
Protocol: (§1) To determine enzyme selectivity, trypsin, chymotrypsin, and elastase were analyzed using […], and N-succinyl-Ala-Ala-Ala-pNA as substrates, respectively. The reaction mixture was incubated for 20 min and the absorbance was measured at 410 nm.

[3] = system: Trypsin; assay: Enzyme selectivity assay, trypsin; type: biochemical; conditions: mean ± SD
Protocol: as §1

[4] = system: transgenic APP/PS1 mice; conditions: 25 mg/kg; cited from earlier work
[5] = molecular target: T3, BACE1 (Homo sapiens, UniProt P56817); assay: BACE1 FRET assay; type: biochemical; conditions: mean ± SD, read-out: Inhibitory activity (%) against BACE1
T3 construct: purchased Thermo Fisher Scientific, Inc; host or cells: baculovirus expression system
Protocol: To evaluate BACE1 inhibitory activity, a BACE1 FRET assay kit with a recombinant baculovirus-expressed BACE1 and a Rh-[…]-Quencher substrate was used. Briefly, a mixture of BACE1 (1.0 U/mL), the substrate, and tested sample at a different concentration, was incubated for 60 min at 25 °C in well plates. The increase in fluorescence intensity was measured by a fluorescence microplate reader at excitation and emission wavelengths of 545/590 nm (FLX800, Winooski, VT, USA). The inhibitory ratio (%) was calculated using the formula: Inhibition (%) = [1 − (S − S0)/(C − C0)] × 100, where C is the absorbance of control after 60 min of incubation, C0 is the absorbance of control at time 0, S was the absorbance of samples after 60 min of incubation, and S0 was the absorbance of the samples at time 0.

[6] = system: mice; conditions: cited from earlier work
[7] = molecular target: T4, Chymotrypsin (Bos taurus, UniProt P00766); assay: Enzyme selectivity assay, chymotrypsin; type: biochemical; conditions: mean ± SD, read-out: Inhibitory activity (%) against Chymotrypsin
T4 construct: purchased Sigma-Aldrich
Protocol: as §1

[8] = molecular target: T1, BChE; assay: Anti-cholinesterase activity assay (modified Ellman method), BChE; type: biochemical
Protocol: (§2) AChE or BChE (0.8 U/mL) was added to a mixture which contained 0.1 M sodium phosphate buffer, 5 mM DTNB, and a tested sample, and then incubated at 37 °C for 15 min.
(§3) The cholinesterases inhibition kinetics of zerumbone were analyzed using Dixon and Lineweaver-Burk plots. The dissociation constant (Ki) was determined by interpretation of the Dixon plot, and Vmax and Km were calculated by Lineweaver–Burk plots, using the initial velocities obtained over a substrate concentration range [11].

[9] = system: Sprague–Dawley rats; conditions: 1 and 10 mg/kg; cited from earlier work
[10] = molecular target: AChE (Electrophorus electricus, UniProt O42275); conditions: Dixon and Lineweaver-Burk plots
Protocol: as §2, §3

[11] = system: oxidative stress related inflammation and cancer cell proliferation; conditions: cited from earlier work

T1 sequence (P81908 whole entry): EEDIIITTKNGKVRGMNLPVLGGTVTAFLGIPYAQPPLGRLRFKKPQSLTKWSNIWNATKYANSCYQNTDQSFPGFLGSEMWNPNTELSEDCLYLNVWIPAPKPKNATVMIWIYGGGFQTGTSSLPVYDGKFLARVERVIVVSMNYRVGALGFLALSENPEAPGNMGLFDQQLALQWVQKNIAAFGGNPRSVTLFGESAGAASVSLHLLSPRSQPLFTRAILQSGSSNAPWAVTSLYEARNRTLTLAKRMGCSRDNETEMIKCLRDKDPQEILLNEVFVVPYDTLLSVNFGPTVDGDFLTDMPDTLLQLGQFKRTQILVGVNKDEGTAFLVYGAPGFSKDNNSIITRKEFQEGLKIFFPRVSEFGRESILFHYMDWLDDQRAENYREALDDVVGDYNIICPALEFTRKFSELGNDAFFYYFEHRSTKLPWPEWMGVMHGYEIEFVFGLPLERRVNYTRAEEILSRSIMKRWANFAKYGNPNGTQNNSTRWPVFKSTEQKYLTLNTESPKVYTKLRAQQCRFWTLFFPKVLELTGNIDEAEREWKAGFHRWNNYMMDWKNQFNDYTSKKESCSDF
T3 sequence (P56817 46-501): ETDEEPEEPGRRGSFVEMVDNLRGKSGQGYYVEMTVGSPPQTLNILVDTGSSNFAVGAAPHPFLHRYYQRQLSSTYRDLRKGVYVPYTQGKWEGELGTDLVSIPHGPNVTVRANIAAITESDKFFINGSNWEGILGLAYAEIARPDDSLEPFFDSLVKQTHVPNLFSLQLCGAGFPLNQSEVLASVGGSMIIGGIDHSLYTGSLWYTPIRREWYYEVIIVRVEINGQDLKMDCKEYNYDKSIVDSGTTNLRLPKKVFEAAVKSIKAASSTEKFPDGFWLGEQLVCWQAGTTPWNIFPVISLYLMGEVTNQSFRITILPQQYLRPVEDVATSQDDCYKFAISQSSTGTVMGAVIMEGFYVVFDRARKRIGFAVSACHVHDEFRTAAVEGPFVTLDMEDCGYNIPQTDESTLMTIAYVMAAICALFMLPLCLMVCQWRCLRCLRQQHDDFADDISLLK
T2 sequence (P00772 27-266): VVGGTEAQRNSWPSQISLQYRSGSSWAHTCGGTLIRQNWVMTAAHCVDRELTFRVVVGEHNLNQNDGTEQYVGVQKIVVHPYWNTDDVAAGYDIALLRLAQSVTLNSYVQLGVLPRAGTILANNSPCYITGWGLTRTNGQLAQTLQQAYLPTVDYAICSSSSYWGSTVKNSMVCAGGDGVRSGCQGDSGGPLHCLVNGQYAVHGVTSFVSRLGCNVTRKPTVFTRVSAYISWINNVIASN
Sequence of AChE (O42275 24-633): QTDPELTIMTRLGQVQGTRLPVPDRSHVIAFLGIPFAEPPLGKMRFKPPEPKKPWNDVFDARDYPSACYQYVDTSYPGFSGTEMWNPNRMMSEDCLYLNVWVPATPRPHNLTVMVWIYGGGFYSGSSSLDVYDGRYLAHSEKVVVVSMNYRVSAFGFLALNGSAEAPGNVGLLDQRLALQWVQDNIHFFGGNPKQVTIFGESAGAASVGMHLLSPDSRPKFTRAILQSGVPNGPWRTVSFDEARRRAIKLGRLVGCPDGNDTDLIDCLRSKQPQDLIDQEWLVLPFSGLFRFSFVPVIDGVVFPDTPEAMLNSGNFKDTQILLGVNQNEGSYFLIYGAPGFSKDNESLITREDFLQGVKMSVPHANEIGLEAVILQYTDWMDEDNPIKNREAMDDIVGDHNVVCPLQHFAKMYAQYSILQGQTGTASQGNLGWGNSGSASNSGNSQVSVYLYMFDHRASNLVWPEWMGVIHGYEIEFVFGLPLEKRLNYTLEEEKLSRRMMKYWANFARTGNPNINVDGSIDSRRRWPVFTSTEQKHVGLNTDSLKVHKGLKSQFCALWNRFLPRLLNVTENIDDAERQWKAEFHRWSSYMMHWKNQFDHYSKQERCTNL

COc1ccc2c3c1O[C@H]1C[C@@H](O)C=C[C@@]31CCN(C)C2 [Galantamine]
BChE Inhibition Type [1]: Competitive ^5

C/C1=C\CC(C)(C)/C=C/C(=O)/C(C)=C/CC1 [Zerumbone]
inhibition at 50 µM ([2]; 50 µM): 3.46 ± 1.85%
inhibition at 100 µM ([2]; 100 µM): 3.57 ± 0.94%
Inhibitory activity (%) against Trypsin ([3]; 50 µM): 5.00 ± 1.94%
Inhibitory activity (%) against Trypsin ([3]; 100 µM): 3.75 ± 2.03%
Effect on behavioral impairments and Aβ deposition [4]: alleviated behavioral impairments and Aβ deposition
inhibition at 50 µM ([5]; 50 µM): 13.3 ± 1.2%
inhibition at 100 µM ([5]; 100 µM): 16.1 ± 1.36%
Genotoxicity, organ weight, clinical chemistry, hematology, histopathology ([6]; mouse, in vivo, ip): did not cause any genotoxicity
Acute toxicity in vivo ([6]; previous in vivo studies): did not produce significant acute toxicity
inhibition at 50 µM ([7]; 50 µM): 3.45 ± 0.3%
inhibition at 100 µM ([7]; 100 µM): 2.71 ± 0.45%
BChE Inhibition Type ([8]; Dixon and Lineweaver-Burk plots): Competitive
Fold more potent BChE suppression in comparison to galantamine ([8]; versus positive control galantamine): approximately 3 fold
Effect on cognitive impairments and memory deficits related to scopolamine [9]: attenuated cognitive impairments and memory deficits
AChE Inhibition Type [10]: Non-competitive

C/C1=C\CC/C(C)=C/CC(C)(C)/C=C/C1 [α-Humulene]
Activity in oxidative stress related inflammation and cancer cell proliferation [11]: virtually inactive
